Values of other authors in patent US20230243814A1, “CHEMICAL CLAS[…] AND METHOD FOR PLANTS” (priority 2020, published 2023).
Like-named read-outs stand apart in the source and are kept apart here.

How the values were obtained:
[1] = tested on: brain wave (EEG) activity; settings: for beta wave activity (EEG) / alpha wave activity (EEG) / beta and other absolute wave activity (EEG): inhalation; for alpha wave boost: focus / beta wave boost: creativity: relative magnitude in words; for alpha wave activity (EEG): test concentration or dose not given here; for beta and other absolute wave activity (EEG): test concentration or dose not given here; for beta wave activity (EEG): test concentration or dose not given here
[2] = relative magnitude of the activity in words
[3] = relative magnitude of the activity in words; remark: listed apart in the source
[4] = target: AChE (acetylcholinesterase) (Homo sapiens, UniProt P22303); settings: relative magnitude of the activity in words
Chain of AChE (acetylcholinesterase) (P22303 32-614, species assumed): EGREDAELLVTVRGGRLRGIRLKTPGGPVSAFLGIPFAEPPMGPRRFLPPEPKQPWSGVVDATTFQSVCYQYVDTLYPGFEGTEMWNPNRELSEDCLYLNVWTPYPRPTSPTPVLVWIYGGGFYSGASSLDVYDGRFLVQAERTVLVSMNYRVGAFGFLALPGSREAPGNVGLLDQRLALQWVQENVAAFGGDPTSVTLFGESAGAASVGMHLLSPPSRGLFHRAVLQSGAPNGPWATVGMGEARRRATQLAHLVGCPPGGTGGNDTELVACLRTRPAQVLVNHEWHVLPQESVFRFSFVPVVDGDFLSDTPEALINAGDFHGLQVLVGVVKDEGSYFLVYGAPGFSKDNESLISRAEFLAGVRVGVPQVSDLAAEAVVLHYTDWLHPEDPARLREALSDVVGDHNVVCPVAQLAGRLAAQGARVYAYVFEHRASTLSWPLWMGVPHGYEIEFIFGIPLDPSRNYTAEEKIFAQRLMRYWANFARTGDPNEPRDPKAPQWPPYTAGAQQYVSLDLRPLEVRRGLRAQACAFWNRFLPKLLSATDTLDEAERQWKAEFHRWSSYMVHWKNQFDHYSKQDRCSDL

[5] = relative magnitude of the activity in words; remark: listed apart in the source
[6] = relative magnitude of the activity in words; remark: listed apart in the source
[7] = relative magnitude of the activity in words; remark: listed apart in the source
GABA A = settings: relative magnitude of the activity in words
[8] = relative magnitude of the activity in words; remark: listed apart in the source
[9] = relative magnitude of the activity in words; remark: listed apart in the source

Row | Compound | antinociceptive pain blocker [2] | analgesic pain relief [3] | AChEl [4] | sedative [5] | further results
1 | C=C(C)C1CC=C(C)CC1 (single isomer, unassigned; (+)) [(+) limonene] |  |  |  |  | beta wave activity (EEG) ([1]; all subjects): increase relative high beta wave activity; alpha wave activity (EEG) ([1]; men): no increase in alpha wave activity; beta and other absolute wave activity (EEG) ([1]; men): relative high beta activity increase; alpha wave activity (EEG) ([1]; women): increased absolute fast alpha wave activity; beta wave activity (EEG) ([1]; women): decreased relative mid beta wave activity
2 | CC1=CCC2C(C1)C2(C)C (centres unmarked) [3 carene] | no notable | no notable | very strong |  | 
3 | CC(C)=CCC[C@](C)(O)[C@@H]1CC=C(C)CC1 [a bisabolol] | very strong | no notable | no notable | no notable | muscle relaxant [6]: very strong
4 | C=C/C(C)=C/C/C=C(\C)CCC=C(C)C [alpha farnesene] | no notable | no notable |  |  | 
5 | CC1=CC[C@H](C(C)C)C=C1 [alpha phellandrene] | very strong | moderate | no notable | no notable | anti depressant [7]: moderate
6 | CC1=CCC2CC1C2(C)C (stereo not drawn) [alpha pinene] | no notable | weak | very strong | agonistic | GABA A Modulation (GABA A): moderate; alpha wave boost: focus ([1]; no gender qualifier): moderate; beta wave boost: creativity ([1]; women only): very strong; anti anxiety [8]: moderate; anti depressant [7]: moderate; motor stimulation (EPM) [9]: moderate
7 | CC1=CC=C(C(C)C)CC1 [alpha terpinene] | no notable |  | very strong |  | 
8 | CC1=CC[C@@H](C(C)(C)O)CC1 [alpha terpineol] | very strong | very strong | no notable | moderate | muscle relaxant [6]: very strong
9 | C=C1CC/C=C(\C)CC[C@@H]2[C@@H]1CC2(C)C [beta caryophyllene] | no notable | moderate | no notable | no notable | anti anxiety [8]: moderate; anti depressant [7]: moderate
10 | C=CC(=C)CC/C=C(\C)CCC=C(C)C [beta farnesene] | no notable | no notable |  |  | 
11 | C=CC(=C)CCC=C(C)C [beta myrcene] | no notable | moderate | no notable | weak | muscle relaxant [6]: moderate
12 | C=C/C(C)=C/CC=C(C)C [beta ocimene] | no notable | no notable | very strong |  | 
13 | C=C1CCC2CC1C2(C)C (stereo not drawn) [beta pinene] | no notable | moderate | no notable | moderate | beta wave boost: creativity ([1]; women only): very strong; anti depressant [7]: moderate
14 | C=C1C2CCC(C2)C1(C)C (centres unmarked) [camphene] | no notable | no notable | no notable | moderate | 
15 | CC12CCC(CC1)C(C)(C)O2 [eucalyptol] | no notable |  | very strong |  | 
16 | C=CCc1ccc(O)c(OC)c1 [eugenol] | very strong |  |  |  | 
17 | CC12CCC(C1)C(C)(C)C2O (centres unmarked) [fenchol] | no notable | no notable | no notable | moderate | 
18 | C[C@H]1CC[C@@H](C(C)(C)O)CC2=C1CC[C@@H]2C [guiaol] | no notable |  | no notable | no notable | 
19 | C/C1=C\CC/C(C)=C/CC(C)(C)/C=C/C1 [humulene] | no notable | no notable | no notable | no notable | 
20 | C=C(C)[C@H]1CC=C(C)CC1 [limonene] | no notable | moderate | agonistic |  | beta wave boost: creativity ([1]; women only): very strong; anti depressant [7]: moderate
21 | C=CC(C)(O)CCC=C(C)C (centres unmarked) [linalool] | very strong | moderate | no notable | very strong | GABA A Modulation (GABA A): very strong; anti anxiety [8]: very strong; anti depressant [7]: very strong
22 | C=CC(C)(O)CCC=C(C)CCC=C(C)C (centres unmarked) [nerolidol] | very strong | moderate | no notable | very strong | anti anxiety [8]: very strong
23 | CC1=CCC(=C(C)C)CC1 [terpinolene] | no notable | no notable | no notable | weak | muscle relaxant [6]: moderate; alpha wave activity (EEG) ([1]; all subjects): increase relative fast alpha wave activity; beta wave activity (EEG) ([1]; all subjects): decrease mid beta wave activity; alpha wave activity (EEG) ([1]; men): no increase in alpha wave activity; beta and other absolute wave activity (EEG) ([1]; men): decrease in relative mid beta wave activity; alpha wave activity (EEG) ([1]; women): increased absolute fast alpha wave activity; alpha wave boost: focus ([1]; women only): very strong
24 | (+) alpha pinene |  |  |  |  | alpha wave activity (EEG) ([1]; men): no impact on alpha waves; beta and other absolute wave activity (EEG) ([1]; men): significant decreases in absolute waves such as theta, beta, low beta and high beta; alpha wave activity (EEG) ([1]; women): significantly (P<0.05) increased; beta wave activity (EEG) ([1]; women): absolute beta wave and absolute high beta wave activity significantly (P<0.05) increased
25 | (+) beta pinene |  |  |  |  | alpha wave activity (EEG) ([1]; men): no impact on alpha waves; beta and other absolute wave activity (EEG) ([1]; men): no significant changes in the absolute waves; alpha wave activity (EEG) ([1]; women): significantly increased; beta wave activity (EEG) ([1]; women): significantly increased
